Laboratory results as given in article PMC10184130.
Like-named read-outs stand apart in the source and are kept apart here.

Assays:
mouse C1s = target: T1, mouse C1s (Mus musculus, UniProt Q8CG14); experiment: Mouse C1s enzyme assay; type: biochemical; settings: supplementary csv
T1 construct: Recombinant mouse C1s (22–694 aa) fused with both the N-terminal IgG signal peptide; IgG signal peptide (N); His tag (C); made in house; host or cells: Expi293 cells
T1 sequence (Q8CG14 438-688 limits assumed): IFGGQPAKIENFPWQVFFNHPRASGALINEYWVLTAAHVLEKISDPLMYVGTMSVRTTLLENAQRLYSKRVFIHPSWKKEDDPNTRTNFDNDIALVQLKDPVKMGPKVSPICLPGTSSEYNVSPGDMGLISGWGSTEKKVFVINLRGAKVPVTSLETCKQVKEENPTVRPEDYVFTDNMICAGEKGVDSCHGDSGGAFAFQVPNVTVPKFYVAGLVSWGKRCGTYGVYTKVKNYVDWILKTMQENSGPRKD
T1 sequence (Q8CG14 16-437 partner limits assumed): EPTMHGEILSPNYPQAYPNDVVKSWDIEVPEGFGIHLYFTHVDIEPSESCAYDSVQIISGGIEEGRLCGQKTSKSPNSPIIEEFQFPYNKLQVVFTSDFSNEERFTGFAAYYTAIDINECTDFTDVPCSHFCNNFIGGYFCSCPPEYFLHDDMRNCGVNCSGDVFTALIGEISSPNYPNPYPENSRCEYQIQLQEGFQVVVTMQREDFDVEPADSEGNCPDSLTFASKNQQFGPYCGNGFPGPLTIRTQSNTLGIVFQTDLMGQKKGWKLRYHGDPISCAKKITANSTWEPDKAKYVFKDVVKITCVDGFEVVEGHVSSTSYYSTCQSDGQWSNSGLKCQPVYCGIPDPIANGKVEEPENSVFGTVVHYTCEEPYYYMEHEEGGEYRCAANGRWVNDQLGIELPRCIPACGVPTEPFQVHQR
Source text: Recombinant mouse C1s (22–694 aa) fused with both the N-terminal IgG signal peptide and the C-terminal His tag was expressed in Expi293 cells and purified. Mouse C1s was activated by recombinant human C1r prior to use. Mouse C1s assay conditions were the same as for human C1s, except that the enzyme solution concentration was 30 nmol/L.

human factor D = target: T2, human factor D (Homo sapiens, UniProt P00746); experiment: Human factor D enzyme assay; type: biochemical; settings: supplementary csv
T2 construct: Recombinant human factor D (26–253 aa) fused with both the N-terminal IgG signal peptide; IgG signal peptide (N); His tag (C); made in house; host or cells: Expi293 cells
Source text: Recombinant human factor D (26–253 aa) fused with both the N-terminal IgG signal peptide and the C-terminal His tag was expressed in Expi293 cells and purified. The human factor D assay condition was the same as for human MASP2, except that the enzyme solution concentration was 20 nmol/L and the substrate solution contained a 400 μmol/L Z-Lys-SBzl peptide and 50 μmol/L BES-Thio.

human plasmin = target: T3, human plasmin (Homo sapiens, UniProt P00747); experiment: Human plasmin enzyme assay; type: biochemical; settings: supplementary csv
T3 construct: purchased Zedira
Description: Recombinant human plasmin (Zedira, Hesse, Germany) and the substrate were diluted in an assay buffer [50 mmol/L Tris–HCl (pH 7.5), 150 mmol/L NaCl, and 0.01% (w/v) Tween 20]. Compounds were dissolved in DMSO and then diluted in an assay buffer. After 5 μL of compound solution was added to a 384-well black plate, 5 μL of substrate solution containing 75 μmol/L Boc-Val-Leu-Lys-MCA (Peptide Institute, Osaka, Japan) was added to the plate. Then, 11.25 nmol/L human plasmin was added to the plate and incubated at room temperature for 60 min. The fluorescence at an excitation wavelength of 380 nm and an emission wavelength of 460 nm was detected using an EnVision multilabel plate reader.

[1] = system: C5b-9 MAC formation induced by human serum; experiment: C5b-9 MAC complex formation study (Wieslab classical pathway kit); type: biochemical; settings: in vitro, dose-dependent
Description: The levels of the complement activation product C5b-9 MAC were determined by a Wieslab complement system classical pathway kit (Svar Life Science, Malmo, Sweden). Briefly, diluted human serum was preincubated with the reagent diluent containing 0.3% DMSO or a range of concentrations of C1s inhibitors for 10 min at room temperature. Then, the preincubated serum was added to each well, and the plate was incubated for 30 min at 37 ° C with a lid. The plate was then washed three times, and subsequent processes were conducted by following the manufacturer’s instructions. Lastly, the absorbance was measured with a Multiskan microplate photometer (Thermo Fisher Scientific, MA, USA), and the levels of complement activation were calculated based on the standard curve generated with calibrators with serially diluted human serum. The samples with serum treatment were set as 100%, and the activities of the negative control (NC) without the addition of serum were set as 0%.

[2] = target: T4, Human Multidrug Resistance 1 (MDR-1) Expressing Cells (Homo sapiens, UniProt P08183); experiment: Membrane permeability with human MDR-1 expressing cells; type: in vitro ADME; settings: supplementary csv
T4 construct: expressed in transfected cells
Description: (§1) The transcellular transport study was performed as reported previously.[31] In brief, the cells were grown in an HTS Transwell 96-well permeable support (pore size of 0.4 μm, 0.143 cm^2 surface area) with a polyethylene terephthalate membrane (Corning Life Sciences, Lowell, MA, USA) at a density of 1.125 × 10^5 cells/well. The cells were preincubated with M199 at 37 °C for 30 min. Subsequently, transcellular transport was initiated by the addition of M199 to apical compartments containing 1 μmol/L test compounds and terminated by the removal of each assay plate after 2 h. The aliquots in the opposite compartments were subjected to measurement for compound concentration by LC–MS/MS. Permeability was calculated using the permeated compound concentration.

MDR1 (P-gp) = target: T5, MDR1 (P-gp) (Homo sapiens, UniProt P08183); experiment: as above; type: in vitro ADME; settings: human; MDR1-expressing cells, 1 μmol/L, 2 h
T5 construct: expressed in transfected cells
Description: as §1

[3] = Pharmacokinetics analysis in mice (oral; plasma and brain); type: in vivo; settings: for AUC0-24h / Cmax / MRT: plasma; for concentration at 2 h / Kp at 2 h / concentration at 24 h: male, C57BL/6J, mouse, brain; for Kp at 2 h: read-out: Brain to plasma ratio 2 h
Description: Male C57BL/6J mice were purchased from The Jackson Laboratory Japan, Inc. (Kanagawa, Japan). […] The compound was dissolved in 10% DMSO/10% Cremophor EL/20% PEG400/60% 0.1 mol/L citric acid solution and administered orally at doses of 10, 30, or 100 mg/kg. Blood samples were collected into heparinized tubes at the designated time points (0.5, 1, 2, 4, 8, and 24 h postdosing), and brains were also collected at 2 and 24 h postdosing. Plasma was separated from the blood samples by centrifugation. The plasma and brain concentrations were quantified with high-performance liquid chromatography–tandem mass spectrometry. The lower limit of quantitation was 1 ng/mL for plasma and 5 ng/mL for brains.

T3 sequence (P00747 581-810 limits assumed): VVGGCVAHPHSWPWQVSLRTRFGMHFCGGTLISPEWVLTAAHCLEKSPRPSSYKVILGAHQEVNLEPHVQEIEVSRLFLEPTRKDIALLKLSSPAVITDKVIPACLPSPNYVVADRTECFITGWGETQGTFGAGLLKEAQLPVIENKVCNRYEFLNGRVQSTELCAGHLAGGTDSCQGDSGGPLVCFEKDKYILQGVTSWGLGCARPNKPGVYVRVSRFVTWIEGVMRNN
T2 sequence (P00746 26-253): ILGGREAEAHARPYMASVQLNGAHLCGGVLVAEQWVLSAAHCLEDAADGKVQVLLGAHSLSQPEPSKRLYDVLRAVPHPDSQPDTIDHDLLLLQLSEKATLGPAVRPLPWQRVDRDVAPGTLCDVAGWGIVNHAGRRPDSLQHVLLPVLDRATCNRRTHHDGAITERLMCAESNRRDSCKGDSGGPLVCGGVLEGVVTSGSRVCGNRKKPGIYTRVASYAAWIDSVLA

- IC50 (mouse C1s): 0.061 µM
- IC50 (human factor D): > 30 µM
- IC50 (human plasmin): > 30 µM
- MDR1 (A to B) [2]: 14 nm/s
- Papp A→B at 2 h, 1 μmol/L (MDR1 (P-gp)): 1.4 ×10⁻⁶ cm/s
- AUC0-24h ([3]; 10 mg/kg): 6017.8 ± 390.4 ng·h/mL
- Cmax ([3]; 10 mg/kg): 1032.5 ± 173.0 ng/mL
- MRT ([3]; 10 mg/kg): 4.31 ± 0.23 h
- AUC0-24h ([3]; 30 mg/kg): 21928.6 ± 1428.2 ng·h/mL
- Cmax ([3]; 30 mg/kg): 2583.3 ± 267.1 ng/mL
- MRT ([3]; 30 mg/kg): 5.02 ± 0.18 h
- AUC0-24h ([3]; 100 mg/kg): 139341.0 ± 36760.1 ng·h/mL
- Cmax ([3]; 100 mg/kg): 8895.5 ± 1516.8 ng/mL
- MRT ([3]; 100 mg/kg): 7.66 ± 0.99 h
- concentration at 2 h ([3]; 10 mg/kg): 560 ± 106 ng/g
- Kp at 2 h ([3]; 10 mg/kg): 0.7
- concentration at 24 h ([3]; 10 mg/kg): 5.2 ± 0.2 ng/g
- concentration at 2 h ([3]; 30 mg/kg): 3830 ± 935 ng/g
- Kp at 2 h ([3]; 30 mg/kg): 1.7
- concentration at 24 h ([3]; 30 mg/kg): 8.9 ± 3.8 ng/g
- concentration at 2 h ([3]; 100 mg/kg): 33600 ± 19300 ng/g
- Kp at 2 h ([3]; 100 mg/kg): 6
- concentration at 24 h ([3]; 100 mg/kg): 1860 ± 2400 ng/g
SMILES: Cc1cc([C@H]2CN(c3cc(F)c4c(N)nncc4c3)CCN2c2cccc(F)c2)no1 [Compound (R)-8, 8-Fluoro-6-[(3R)-4-(3-fluorophenyl)-3-(5-methyl-1,2-oxazol-3-yl)piperazin-1-yl]phthalazin-1-amine]
- Inhibition of MAC formation induced by human serum [1]: significantly inhibited
